{
  "source": "paper PMC12527922",
  "about": "“Cocaine chemogenetics blunts drug-seeking by synthetic physiology” (Nature, 2025)",
  "key": {"[1]": {"biological_target": "T1, coca-GlyR (α7(L141G,G175K,Y217F)–GlyR) (Homo sapiens, UniProt P23415+P36544, G175K/L141G/Y217F)", "T1 construct": "expressed in transfected cells; host or cells: HEK293 (ATCC CRL-1573), pcDNA3.1", "T1 sequence (P36544+P23415 fused P36544:L141G/P36544:G175K/P36544:Y217F)": "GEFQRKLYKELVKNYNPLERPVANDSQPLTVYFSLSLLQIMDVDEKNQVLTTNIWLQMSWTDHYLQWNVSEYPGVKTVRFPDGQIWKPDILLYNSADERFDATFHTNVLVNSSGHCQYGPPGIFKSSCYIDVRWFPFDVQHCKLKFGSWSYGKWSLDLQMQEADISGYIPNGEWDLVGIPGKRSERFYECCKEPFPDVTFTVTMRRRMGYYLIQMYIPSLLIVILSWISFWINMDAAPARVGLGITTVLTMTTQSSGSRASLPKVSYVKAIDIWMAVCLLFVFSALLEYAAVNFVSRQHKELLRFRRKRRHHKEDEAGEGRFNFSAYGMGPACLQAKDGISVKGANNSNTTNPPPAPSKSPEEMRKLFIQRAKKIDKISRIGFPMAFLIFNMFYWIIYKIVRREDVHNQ", "assay": "Membrane potential assay, coca-GlyR in HEK293", "format": "cell-based"}, "unmodified α7–5HT3": {"biological_target": "T2, unmodified α7–5HT3 (UniProt P23979+P36544, M226I/T225I)", "T2 construct": "expressed in transfected cells; host or cells: HEK293 (ATCC CRL-1573), pcDNA3.1", "T2 sequence (P36544+P23979 fused P36544:T225I/P36544:M226I)": "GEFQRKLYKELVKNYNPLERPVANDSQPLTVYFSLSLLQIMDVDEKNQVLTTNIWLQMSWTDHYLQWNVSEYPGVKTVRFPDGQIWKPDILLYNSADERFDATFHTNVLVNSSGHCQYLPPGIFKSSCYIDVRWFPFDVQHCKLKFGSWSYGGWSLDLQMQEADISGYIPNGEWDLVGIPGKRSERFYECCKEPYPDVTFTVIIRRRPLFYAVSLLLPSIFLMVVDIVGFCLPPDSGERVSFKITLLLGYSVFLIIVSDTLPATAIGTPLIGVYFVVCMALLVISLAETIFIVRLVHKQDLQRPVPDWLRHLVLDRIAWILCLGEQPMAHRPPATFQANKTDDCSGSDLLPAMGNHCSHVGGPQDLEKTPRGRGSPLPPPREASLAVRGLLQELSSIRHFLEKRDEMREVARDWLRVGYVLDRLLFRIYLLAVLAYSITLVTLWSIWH", "assay": "Membrane potential assay, unmodified α7–5HT3", "format": "cell-based, human α7 nAChR LBD, mouse 5HT3 IPD"}, "unmodified α7–GlyR": {"biological_target": "T3, unmodified α7–GlyR (Homo sapiens, UniProt P23415+P36544)", "T3 construct": "expressed in transfected cells; host or cells: HEK293 (ATCC CRL-1573), pcDNA3.1", "T3 sequence (P36544+P23415 fused)": "as the sequence (P36544+P23415 fused P36544:L141G/P36544:G175K/P36544:Y217F) above, with G119L, K153G, F195Y counted along it", "assay": "Membrane potential assay, unmodified α7–GlyR", "format": "cell-based", "details": "sheet 1d"}, "[2]": {"biological_target": "α7–5HT3 mutant chimeric channels (Homo sapiens, UniProt P36544, L141G)", "sequence (P36544 23-224 L141G)": "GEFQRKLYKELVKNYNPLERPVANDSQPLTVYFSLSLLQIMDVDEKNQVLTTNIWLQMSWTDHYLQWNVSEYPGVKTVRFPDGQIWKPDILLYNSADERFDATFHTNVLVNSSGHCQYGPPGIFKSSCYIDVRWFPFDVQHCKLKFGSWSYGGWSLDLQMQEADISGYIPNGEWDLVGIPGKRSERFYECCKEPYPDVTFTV", "sequence (P23979 242-489, further chain)": "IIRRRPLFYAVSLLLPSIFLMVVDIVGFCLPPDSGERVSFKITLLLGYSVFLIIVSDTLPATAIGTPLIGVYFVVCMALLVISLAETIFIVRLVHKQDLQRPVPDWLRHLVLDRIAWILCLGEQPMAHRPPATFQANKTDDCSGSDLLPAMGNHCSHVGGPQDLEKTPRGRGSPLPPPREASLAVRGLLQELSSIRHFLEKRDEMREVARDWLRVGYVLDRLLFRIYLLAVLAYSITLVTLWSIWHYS", "assay": "cell-based", "format": "cell-based, human α7 nAChR LBD, mouse 5HT3 IPD"}, "[3]": {"biological_target": "α7–5HT3 mutant chimeric channels (Homo sapiens, UniProt P36544, Q139M)", "sequence (P36544 23-224 Q139M)": "as the sequence (P36544 23-224 L141G) above, with Q117M, G119L counted along it", "sequence (P23979 242-489, further chain)": "as the sequence (P23979 242-489, further chain) above", "assay": "cell-based", "format": "cell-based, human α7 nAChR LBD, mouse 5HT3 IPD"}, "[4]": {"biological_target": "α7–5HT3 mutant chimeric channels (Homo sapiens, UniProt P36544, Q139R)", "sequence (P23979 242-489)": "as the sequence (P23979 242-489, further chain) above", "sequence (P36544 23-224 Q139R)": "as the sequence (P36544 23-224 L141G) above, with Q117R, G119L counted along it", "assay": "cell-based", "format": "cell-based, human α7 nAChR LBD, mouse 5HT3 IPD"}, "[5]": {"biological_target": "α7–5HT3 mutant chimeric channels (Homo sapiens, UniProt P36544, Q79G)", "sequence (P36544 23-224 Q79G)": "as the sequence (P36544 23-224 L141G) above, with Q57G, G119L counted along it", "sequence (P23979 242-489, further chain)": "as the sequence (P23979 242-489, further chain) above", "assay": "cell-based", "format": "cell-based, human α7 nAChR LBD, mouse 5HT3 IPD"}, "[6]": {"biological_target": "α7–5HT3 mutant chimeric channels (Homo sapiens, UniProt P36544, S170F)", "sequence (P36544 23-224 S170F)": "as the sequence (P36544 23-224 L141G) above, with G119L, S148F counted along it", "sequence (P23979 242-489, further chain)": "as the sequence (P23979 242-489, further chain) above", "assay": "cell-based", "format": "cell-based, human α7 nAChR LBD, mouse 5HT3 IPD"}, "[7]": {"biological_target": "α7–5HT3 mutant chimeric channels (Homo sapiens, UniProt P36544, S170G)", "sequence (P23979 242-489)": "as the sequence (P23979 242-489, further chain) above", "sequence (P36544 23-224 S170G)": "as the sequence (P36544 23-224 L141G) above, with G119L, S148G counted along it", "assay": "cell-based", "format": "cell-based, human α7 nAChR LBD, mouse 5HT3 IPD"}, "[8]": {"biological_target": "α7–5HT3 mutant chimeric channels (Homo sapiens, UniProt P36544, S170Q)", "sequence (P36544 23-224 S170Q)": "as the sequence (P36544 23-224 L141G) above, with G119L, S148Q counted along it", "sequence (P23979 242-489, further chain)": "as the sequence (P23979 242-489, further chain) above", "assay": "cell-based", "format": "cell-based, human α7 nAChR LBD, mouse 5HT3 IPD"}, "[9]": {"biological_target": "α7–5HT3 mutant chimeric channels (Homo sapiens, UniProt P36544, S170W)", "sequence (P23979 242-489)": "as the sequence (P23979 242-489, further chain) above", "sequence (P36544 23-224 S170W)": "as the sequence (P36544 23-224 L141G) above, with G119L, S148W counted along it", "assay": "cell-based", "format": "cell-based, human α7 nAChR LBD, mouse 5HT3 IPD"}, "[10]": {"system": "α7–5HT3 mutant chimeric channels", "assay": "cell-based", "format": "cell-based, human α7 nAChR LBD, mouse 5HT3 IPD", "details": "for EC50: sheet 1e"}, "coca-5HT3": {"system": "coca-5HT3", "assay": "Whole-cell voltage-clamp in HEK293 cells, coca-5HT3", "format": "cell-based, human α7 nAChR LBD, mouse 5HT3 IPD", "description": "Channel mutants and agonists were further characterized in whole-cell voltage-clamp experiments performed on HEK293 cells. At passage 44–48, cells were plated at low density (1 × 10^3 per cm^2) on poly-D-lysine-coated glass coverslips, then transfected in 10 cm^2 wells using the Fugene 6 transfection reagent (Roche) with DNA plasmids containing both an ion channel cDNA (pcDNA3.1, 2 µg per well) and cDNA for GFP (pCMV, 0.1 μg per well), followed by replacement of the medium after 3 h. Recordings were made 24–72 h after transfection.\nElectrophysiological recordings were performed in whole-cell voltage-clamp mode, on an inverted fluorescence microscope (Olympus IX-51) using pClamp software and a […] amplifier (Molecular Devices). Electrophysiological data was filtered at 4 kHz, digitized at 10 kHz using a Digidata 1400 interface (Molecular Devices), recorded on a PC (Dell) and analysed using custom MATLAB software (MathWorks). Solutions were delivered from a gravity fed perfusion system through a capillary tube placed approximately […] from the recorded cell using an eight-way manifold pinch valve system (Nanion), which was controlled from the acquisition software. This allowed for up to seven concentrations of agonist to be tested. […]"}, "[11]": {"system": "coca-GlyR in cultured hippocampal neurons", "assay": "Current-clamp of cultured hippocampal neurons expressing coca-GlyR", "format": "cell-based, rat"}, "[12]": {"details": "screen of chimeric α7–5HT3 and α7–GlyR single LBD mutants (Fig. 1d)"}},
  "note": "Several values for one entry are separate records, joined by “and”; a condition that tells them apart may be missing. Identical values can stand only once. Like-named read-outs stand apart in the source and are kept apart here.",
  "data": [
    {"smiles": "COC(=O)[C@H]1[C@@H](OC(=O)c2ccccc2)C[C@@H]2CC[C@H]1N2C", "note": "[cocaine]", "values": [
      {"measurement": "EC50", "setting": "[1]", "result": "1.2 ± 0.1", "unit": "µM"},
      {"measurement": "EC50 at a75HT3 unmodified, AVG", "setting": "unmodified α7–5HT3; sheet 1e, AVG", "result": 30, "unit": "µM"},
      {"measurement": "EC50 at a75HT3 unmodified", "setting": "unmodified α7–5HT3; sheet 1e, single determinations", "result": 30, "unit": "µM"},
      {"measurement": "EC50 at α7-5HT3, Avg", "setting": "unmodified α7–5HT3; sheet 1d, Avg", "result": 30, "unit": "µM"},
      {"measurement": "EC50 at α7-5HT3", "setting": "unmodified α7–5HT3; sheet 1d, single determinations", "result": 30, "unit": "µM"},
      {"measurement": "EC50 at α7-GlyR, Avg", "setting": "unmodified α7–GlyR; Avg", "result": 30, "unit": "µM"},
      {"measurement": "EC50 at α7-GlyR", "setting": "unmodified α7–GlyR; single determinations", "result": 30, "unit": "µM"},
      {"measurement": "EC50", "setting": "[2]", "result": 2.35, "unit": "µM"},
      {"measurement": "EC50", "setting": "[3]", "result": "> 30", "unit": "µM"},
      {"measurement": "EC50", "setting": "[3]; read-out: EC50 at a7 5HT3 Q139M, Avg, sheet 1d, Avg", "result": "> 30", "unit": "µM"},
      {"measurement": "EC50", "setting": "[4]", "result": "> 30", "unit": "µM"},
      {"measurement": "EC50", "setting": "[4]; read-out: EC50 at a7 5HT3 Q139R, Avg, sheet 1d, Avg", "result": "> 30", "unit": "µM"},
      {"measurement": "EC50", "setting": "[5]", "result": "> 30", "unit": "µM"},
      {"measurement": "EC50", "setting": "[5]; read-out: EC50 at a7 5HT3 Q79G, sheet 1d, single determinations", "result": "> 30", "unit": "µM"},
      {"measurement": "EC50", "setting": "[6]", "result": "> 30", "unit": "µM"},
      {"measurement": "EC50", "setting": "[7]", "result": "> 30", "unit": "µM"},
      {"measurement": "EC50", "setting": "[8]", "result": "> 30", "unit": "µM"},
      {"measurement": "EC50", "setting": "[9]", "result": "> 30", "unit": "µM"},
      {"measurement": "agonism at Leu141Gly or Leu141Ala mutant channels", "setting": "[10]; [12]", "result": "marked induction of cocaine agonism"},
      {"measurement": "agonist activity at Trp77Phe and Leu131Asn mutant channels", "setting": "[10]; [12]", "result": "some cocaine agonist activity"},
      {"measurement": "EC50", "setting": "[10]; AVG, read-out: EC50 at a75HT3 L141G G175K Y115F, AVG", "result": 4.78, "unit": "µM"},
      {"measurement": "EC50", "setting": "[10]; AVG, read-out: EC50 at a75HT3 L141G G175K Y210F, AVG", "result": 2.27, "unit": "µM"},
      {"measurement": "EC50", "setting": "[10]; AVG, read-out: EC50 at a75HT3 L141G G175K Y217F, AVG", "result": 0.715, "unit": "µM"},
      {"measurement": "EC50", "setting": "[10]; AVG, read-out: EC50 at a75HT3 L141G G175K, AVG", "result": 0.315, "unit": "µM"},
      {"measurement": "EC50", "setting": "[10]; AVG, read-out: EC50 at a75HT3 L141G, AVG", "result": 2.35, "unit": "µM"},
      {"measurement": "EC50", "setting": "[10]; single determinations, read-out: EC50 at a75HT3 L141G", "result": 2.35, "unit": "µM"},
      {"measurement": "EC50", "setting": "[10]; single determinations, read-out: EC50 at a75HT3 L141G G175K", "result": "0.39 µM and 0.24 µM"},
      {"measurement": "EC50", "setting": "[10]; single determinations, read-out: EC50 at a75HT3 L141G G175K Y217F", "result": "0.8 µM and 0.63 µM"},
      {"measurement": "currents from coca-5HT3", "setting": "coca-5HT3", "result": "robust cocaine-activated currents"},
      {"measurement": "rheobase", "setting": "[11]; coca-GlyR neurons, 10 uM, single cells", "result": 200, "unit": "pA"},
      {"measurement": "firing in response to current injection", "setting": "[11]; neurons with coca-GlyR", "result": "inhibited"},
      {"measurement": "membrane input resistance", "setting": "[11]; neurons with coca-GlyR", "result": "dose-dependent reduction"},
      {"measurement": "rheobase", "setting": "[11]; neurons with coca-GlyR, cocaine 3 and 10 µM", "result": "increased"}
    ]}
  ]
}
